Key:
TRPC5 channel = target: T1, TRPC5 channel (Rattus norvegicus, UniProt Q8VD38); test: Glomerular inside-out single-channel recordings, riluzole-activated TRPC5 channel activity; assay type: cell-based; details: Rilu 3 μM
T1 construct: Acutely isolated glomeruli were prepared as described above; from tissue; host or cells: acutely isolated glomeruli (podocytes) of AT1R Tg and WT rats
T1 sequence (Q8VD38 1-974): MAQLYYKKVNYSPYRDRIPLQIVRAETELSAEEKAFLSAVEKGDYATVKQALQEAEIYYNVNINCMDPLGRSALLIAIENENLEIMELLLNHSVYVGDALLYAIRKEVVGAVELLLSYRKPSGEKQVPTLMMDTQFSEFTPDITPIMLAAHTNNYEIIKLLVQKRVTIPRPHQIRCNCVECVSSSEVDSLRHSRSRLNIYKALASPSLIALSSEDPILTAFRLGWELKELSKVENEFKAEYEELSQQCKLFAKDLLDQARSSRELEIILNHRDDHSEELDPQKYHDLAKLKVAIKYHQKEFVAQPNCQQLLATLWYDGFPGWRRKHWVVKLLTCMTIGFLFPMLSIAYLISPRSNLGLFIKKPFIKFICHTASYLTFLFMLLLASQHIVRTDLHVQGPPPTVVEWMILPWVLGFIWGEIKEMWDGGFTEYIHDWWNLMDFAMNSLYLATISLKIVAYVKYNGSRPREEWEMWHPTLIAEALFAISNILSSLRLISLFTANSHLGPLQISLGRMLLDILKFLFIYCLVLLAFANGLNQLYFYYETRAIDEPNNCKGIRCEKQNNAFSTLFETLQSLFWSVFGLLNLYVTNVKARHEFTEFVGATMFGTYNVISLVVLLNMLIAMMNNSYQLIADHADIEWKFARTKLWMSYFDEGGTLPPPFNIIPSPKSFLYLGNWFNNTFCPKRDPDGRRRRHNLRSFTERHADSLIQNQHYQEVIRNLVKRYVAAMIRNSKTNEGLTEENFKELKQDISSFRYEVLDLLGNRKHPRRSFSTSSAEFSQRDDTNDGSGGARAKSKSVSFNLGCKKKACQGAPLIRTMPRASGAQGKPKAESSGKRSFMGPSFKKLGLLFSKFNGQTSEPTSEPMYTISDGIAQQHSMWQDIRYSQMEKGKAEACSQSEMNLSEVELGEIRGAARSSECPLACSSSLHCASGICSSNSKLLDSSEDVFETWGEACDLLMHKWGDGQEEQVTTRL
Description: (§1) Acute glomeruli isolation and Ca^2+-imaging: WT and AT1R Tg littermates were killed and kidneys were quickly dissected and washed with ice-cold PBS. After isolation using the sieving technique as previously described (11), glomeruli were incubated with the Ca^2+ indicator Fura2-AM (1 μM; Invitrogen) at 37° C. for 15 min. The extracellular solution for Ca^2+-imaging contained (in mM) 140 NaCl, 5 KCl, 10 HEPES, 2 MgCl2, 2 CaCl2, 10 glucose, with pH7.4 adjusted with NaOH. Glomerular Ca^2+-imaging was performed using an inverted microscope (Olympus IX70) with a high-speed CCD camera (Hamamatsu Photonics). Images were taken and analyzed using the Metafluor software (Molecular Devices). It should be noted that Fura-2 is most often taken up by podocytes at the periphery of the isolated glomerulus, but the specificity of recordings in podocytes is best confirmed by patch clamp electrophysiology, as described below.
Glomerular single-channel recordings: Acutely isolated glomeruli were prepared as described above. Single-channel recordings were carried out using an Axopatch 200B and Digidata 1550A (Molecular Devices). Bath and pipette solutions for glomerular single-channel recording contained (in mM) 135 CH3SO3Na, 5 CsCl, 2 CaCl2, 1 MgCl2, 10 HEPES, and 10 glucose with pH7.4 adjusted with NaOH. Once in the inside-out configuration, the bath solution was replaced by intracellular solution, containing (in mM) 135 CH3SO3Cs, 10 CsCl, 3 MgATP, 0.2 EGTA, 0.13 CaCl2, and 10 HEPES with pH 7.4 adjusted with CsOH. Patch pipettes, with resistance of 4-8 MΩ, were prepared using a two step-protocol (P-97, Sutter Instrument). Pipettes were fire-polished before use. For inside-out configuration, a giga-seal (>10 GΩ) was established prior to membrane rupture. Data was acquired at 10 kHz sampling frequency, and filtered with low-pass filtering at 1 kHz. Holding membrane potential was at −60 mV. Single-channel analysis was carried out using Clampfit 10.4 software (Molecular Devices).

kinase = test: standard kinase profiling assays; assay type: biochemical
TRPC6 channels = target: T2, TRPC6 channels (Rattus norvegicus, UniProt Q99N78); test: Glomerular inside-out single-channel recordings, OAG-induced conductances; assay type: cell-based; details: glomeruli from age matched AT1R Tg rats and WT controls
T2 construct: Acutely isolated glomeruli were prepared as described above; from tissue; host or cells: acutely isolated glomeruli (podocytes) of AT1R Tg and WT rats
T2 sequence (Q99N78 1-930): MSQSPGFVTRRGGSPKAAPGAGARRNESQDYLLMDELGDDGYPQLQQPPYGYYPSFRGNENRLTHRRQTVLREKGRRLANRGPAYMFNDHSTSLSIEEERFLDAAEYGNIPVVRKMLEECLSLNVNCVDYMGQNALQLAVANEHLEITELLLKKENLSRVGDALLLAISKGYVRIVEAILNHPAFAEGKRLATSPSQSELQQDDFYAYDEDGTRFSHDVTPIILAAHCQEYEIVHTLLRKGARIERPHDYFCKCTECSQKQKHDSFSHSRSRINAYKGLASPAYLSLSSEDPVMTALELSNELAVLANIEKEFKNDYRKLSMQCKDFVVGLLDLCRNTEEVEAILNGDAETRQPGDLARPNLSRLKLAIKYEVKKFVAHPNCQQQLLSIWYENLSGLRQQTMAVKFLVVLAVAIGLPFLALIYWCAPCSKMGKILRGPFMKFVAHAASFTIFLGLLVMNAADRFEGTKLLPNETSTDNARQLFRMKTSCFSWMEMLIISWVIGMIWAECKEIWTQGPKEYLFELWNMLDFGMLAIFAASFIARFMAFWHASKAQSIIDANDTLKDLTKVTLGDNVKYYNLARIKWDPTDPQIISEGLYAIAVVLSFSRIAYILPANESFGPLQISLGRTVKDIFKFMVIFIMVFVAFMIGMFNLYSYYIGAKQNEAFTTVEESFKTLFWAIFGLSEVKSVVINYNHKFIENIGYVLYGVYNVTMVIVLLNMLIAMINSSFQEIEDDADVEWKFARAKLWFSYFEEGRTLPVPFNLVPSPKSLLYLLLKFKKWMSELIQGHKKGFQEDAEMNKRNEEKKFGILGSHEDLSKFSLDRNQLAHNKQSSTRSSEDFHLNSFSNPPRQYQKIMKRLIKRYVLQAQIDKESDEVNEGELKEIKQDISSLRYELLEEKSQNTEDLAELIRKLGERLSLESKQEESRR
Description: as §1
Glomerular single-channel recordings: Acutely isolated glomeruli were prepared as described above. Single-channel recordings were carried out using an Axopatch 200B and Digidata 1550A (Molecular Devices). Bath and pipette solutions for glomerular single-channel recording contained (in mM) 135 CH3SO3Na, 5 CsCl, 2 CaCl2, 1 MgCl2, 10 HEPES, and 10 glucose with pH7.4 adjusted with NaOH. […]

SMILES | block of TRPC5 channel activity, inside-out recordings in intact glomeruli (TRPC5 channel; AT1R Tg rats, Advanced, AC1903 1 μM) | off-target effects in kinase profiling (kinase) | inhibition of riluzole-activated channel activity, inside-out recordings of podocytes (TRPC5 channel; AT1R Tg rat glomeruli at disease onset (Onset), ML204 1 μM) | inhibition of riluzole-activated conductance, inside-out recordings of podocytes (TRPC5 channel; AT1R Tg rat glomeruli, established disease (Advanced), ML204 1 μM) | inhibition of OAG-induced conductances (TRPC6 channels)
c1ccc(Cn2c(NCc3ccco3)nc3ccccc32)cc1 [AC1903] | blocks TRPC5 channel activity | not found to have any off-target effects | – | – | –
Cc1cc(N2CCCCC2)nc2ccccc12 [ML204, reference compound] | – | – | significant ML204 inhibition of channel activity | inhibition of a much greater riluzole-activated conductance | no inhibition

From patent US11370769B2, “TRPC5 inhibitors and methods of using same” (BOARD OF REGENTS OF THE UNIVERSITY OF NEBRASKA, priority 2017, dated 2022)
